Values quoted from earlier work, collected in article PMC2234480 (The Journal of General Physiology, 2003).

Test system: CLC-0
Details: ref Pusch et al., 2001

## CCC(Oc1ccc(Cl)cc1)C(=O)O (centres unmarked) [CPB, p-chlorophenoxy-butyric acid]
5 mM CPB, V > 40 mV
  relief of block at positive voltages: complete unblock
Model from macroscopic and single-channel analysis
  affinity for closed channels: submillimolar affinity
